Measured values taken from PMC10122656, “Siglec-6 mediates the uptake of extracellular vesicles through a noncanonical glycolipid binding pocket” (Nature Communications, 2023).
Where “and” joins values, the source holds several entries; their conditions need not be identical. Identical values can stand only once.

Tests used:
Experiment in all cases: Cell assay (liposome/EV binding, flow cytometry)
Assay type in all cases: cell-based
Siglec-10 WT CHO cells = molecular target: T1, Siglec-10 WT CHO cells (Homo sapiens, UniProt Q96LC7); conditions: for log10(MFI AF647) of GLL relative to log10(MFI AF647) of the same GLL against UT CHO cells (Fig. 2a): Sig-10 WT, 3 mol% ganglioside liposomes, replicates; for GLL binding to Siglec-10 (in words): cell assay, optimized liposomal formulation
T1 construct: expressed in transfected cells
T1 sequence (Q96LC7 17-697): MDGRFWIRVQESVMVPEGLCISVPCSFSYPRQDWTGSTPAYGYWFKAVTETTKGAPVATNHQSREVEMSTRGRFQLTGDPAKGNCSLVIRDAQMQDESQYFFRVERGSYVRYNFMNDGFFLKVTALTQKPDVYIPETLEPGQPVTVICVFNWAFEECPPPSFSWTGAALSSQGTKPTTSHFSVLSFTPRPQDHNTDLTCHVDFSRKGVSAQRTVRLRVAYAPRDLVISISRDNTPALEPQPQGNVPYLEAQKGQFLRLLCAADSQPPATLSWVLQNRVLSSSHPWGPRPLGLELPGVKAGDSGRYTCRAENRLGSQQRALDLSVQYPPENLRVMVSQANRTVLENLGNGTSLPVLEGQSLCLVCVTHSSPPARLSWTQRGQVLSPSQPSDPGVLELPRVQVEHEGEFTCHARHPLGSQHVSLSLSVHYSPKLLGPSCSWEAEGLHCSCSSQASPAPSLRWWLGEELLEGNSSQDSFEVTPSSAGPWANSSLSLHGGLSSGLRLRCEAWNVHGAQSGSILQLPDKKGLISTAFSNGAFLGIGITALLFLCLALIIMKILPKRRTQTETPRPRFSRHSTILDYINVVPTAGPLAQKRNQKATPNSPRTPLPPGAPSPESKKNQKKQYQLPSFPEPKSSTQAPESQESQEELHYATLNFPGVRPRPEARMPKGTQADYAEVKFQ
Summary of the method: (§1)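 Cells are incubated for 30 min at 37 °C with ligand-displaying liposomes (50 µM lipid) or EVs (50 µg/mL protein) in DMEM F12 containing 5% FBS. After washing and anti-Siglec staining on ice, liposome binding is quantified by flow cytometry within the Siglec-positive population.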

Siglec-11 WT CHO cells = molecular target: T2, Siglec-11 WT CHO cells (Homo sapiens, UniProt Q96RL6); conditions: Sig-11 WT; 3 mol% ganglioside liposomes; replicates
T2 construct: expressed in transfected cells
T2 sequence (Q96RL6 28-698): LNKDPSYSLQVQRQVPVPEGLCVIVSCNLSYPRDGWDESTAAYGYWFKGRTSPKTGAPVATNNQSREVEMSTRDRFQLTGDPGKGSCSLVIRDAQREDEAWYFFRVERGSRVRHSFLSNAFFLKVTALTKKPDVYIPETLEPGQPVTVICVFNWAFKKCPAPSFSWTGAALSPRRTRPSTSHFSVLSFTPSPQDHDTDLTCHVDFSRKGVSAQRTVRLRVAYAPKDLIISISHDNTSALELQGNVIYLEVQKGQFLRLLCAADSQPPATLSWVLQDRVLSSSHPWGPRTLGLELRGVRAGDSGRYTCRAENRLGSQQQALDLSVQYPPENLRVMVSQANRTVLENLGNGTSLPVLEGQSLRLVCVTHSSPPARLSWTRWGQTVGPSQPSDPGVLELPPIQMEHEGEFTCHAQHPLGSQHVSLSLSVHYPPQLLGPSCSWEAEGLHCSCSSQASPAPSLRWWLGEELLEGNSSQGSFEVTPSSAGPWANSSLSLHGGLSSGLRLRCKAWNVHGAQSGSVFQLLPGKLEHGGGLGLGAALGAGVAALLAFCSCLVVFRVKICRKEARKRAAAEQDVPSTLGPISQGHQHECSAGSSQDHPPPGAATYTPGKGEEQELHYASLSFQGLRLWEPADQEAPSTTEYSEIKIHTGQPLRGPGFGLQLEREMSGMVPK
Summary of the method: as §1

[1] = molecular target: T3, Siglec-15 R143A CHO cells (Homo sapiens, UniProt Q6ZMC9, K274L/R143A); conditions: Sig-15 R143A; 3 mol% ganglioside liposomes; replicates
T3 construct: expressed in transfected cells
T3 sequence (Q6ZMC9 20-328 R143A/K274L): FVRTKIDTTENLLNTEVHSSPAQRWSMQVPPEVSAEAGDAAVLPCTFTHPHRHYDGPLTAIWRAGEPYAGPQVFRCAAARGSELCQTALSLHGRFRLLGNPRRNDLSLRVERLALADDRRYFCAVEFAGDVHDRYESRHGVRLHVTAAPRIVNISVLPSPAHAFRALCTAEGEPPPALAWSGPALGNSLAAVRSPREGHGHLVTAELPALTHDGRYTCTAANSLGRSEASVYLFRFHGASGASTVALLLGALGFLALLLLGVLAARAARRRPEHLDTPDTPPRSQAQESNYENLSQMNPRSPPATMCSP
Summary of the method: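 Binding of AF647-labelled, Siglec ligand-bearing liposomes (130 ± 35 nm) or EVs was measured on transfected CHO cells. Exposure was 50 µM or 50 µg/mL for 30 min at 37 °C; Siglec-positive cells were gated for analysis.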

Substance	log10(MFI AF647) of GLL relative to log10(MFI AF647) of the same GLL against UT CHO cells (Fig. 2a) (Siglec-10 WT CHO cells)	log10(MFI AF647) of GLL relative to log10(MFI AF647) of the same GLL against UT CHO cells (Fig. 2a) (Siglec-11 WT CHO cells)	log10(MFI AF647) of GLL relative to log10(MFI AF647) of the same GLL against UT CHO cells (Fig. 2a) [1]	GLL binding to Siglec-10 (in words) (Siglec-10 WT CHO cells)
GD1a	0.32 (2×) and 0.3 and 0.31	-0.11 (2×) and -0.07 and -0.09	-0.02 and -0.07 and -0.06 and -0.05	–
GD1b	0.18 and 0.23 and 0.2 and 0.22	-0.1 (3×) and -0.09	-0.12 and -0.14 (3×)	–
GD3	0.33 (2×) and 0.31 (2×)	-0.13 and -0.11 and -0.09 (2×)	0.02 and -0.02 and 0 and -0.01	novel interactions were observed
GM1	0.32 (2×) and 0.35 and 0.26	0.11 and 0.12 and 0.14 and 0.13	-0.08 and -0.12 (2×) and -0.11	novel interactions were observed
GM2	0.23 and 0.24 and 0.22 and 0.18	-0.06 and -0.03 (2×) and -0.04	-0.02 (2×) and -0.04 and -0.03	–
GM3	-0.09 (2×) and -0.02 and -0.08	-0.1 and -0.09 and -0.11 and -0.12	-0.11 (2×) and -0.12 (2×)	–
GM4	0.2 and 0.21 (3×)	-0.11 and -0.09 (2×) and -0.07	-0.08 and -0.09 and -0.11 and -0.1	–
GQ1b	0.23 and 0.24 and 0.22 and 0.21	-0.25 and -0.21 and -0.2 and -0.24	-0.11 (2×) and -0.12 and -0.08	–
GT1b	0.42 (2×) and 0.4 and 0.39	-0.17 and -0.15 and -0.13 (2×)	-0.03 and -0.06 and -0.05 (2×)	–
